Experimental data taken from US20260069581A1, “METHODS AND COMPOSITIONS FOR CANCER THERAPY” (OHIO STATE INNOVATION FOUNDATION, priority 2020, published 2026).

How the values were obtained:
[1] = system: DNA repair genes in patient LICs (CD34+ CD38−); assay: LC-RNA-seq of primary patient LICs; type: cell-based, human
Method: FIG. 5A-5E show representative data that AR-42 and KPT-9274 synergistically alter DNA repair gene sets of LIC transcriptomes. […] Briefly, primary cells from 5 patients were treated with drug combination or vehicle for 12 hours before LICs (CD34^+ CD38^−) were sorted for LC-RNA-seq. […] Cutoff Log 2FC=1.5; p-value<10e^−2. […] The hierarchical clustering of genes and samples was performed using Euclidean distance matrix and Ward's clustering method.
Limiting cell-RNA-seq (LC-RNA-seq) for primary patient LICs. LC-RNA-seq was performed as previously described to determine transcriptome profiles and differentially expressed genes (DEGs) of patient LICs treated with various inhibitors (21). Briefly, patient cells were cultured in the presence of cytokines and treated with vehicle, single agents or drug combination. 300 viable LICs from treated patient samples were sorted directly into SMART-seq lysis buffer with FACSAria Fusion (BD) based on putative stem cell markers CD34^+ CD38^− (22). […] The Clontech SMARTer v4 kit (Takara Bio USA, Inc., Mountain View, CA) was used for preamplifying samples prior to library construction with the Nextera XT DNA Library Prep Kit (Illumina, Inc., San Diego, CA). Samples were sequenced to a depth of 15-20 million 2×150 bp clusters with the Illumina HiSeq 4000 platform. After quality control with CLEAR selection process and size-normalization, DEGs were called with DESeqs with (FDR) adjusted p-value <0.05. Principle component analysis (PCA) plots were created from count tables which were normalized by size and transformed. For pathway analysis, the list of DEGs, containing gene IDs and corresponding expression values, was uploaded into the IPA software (Qiagen) (Ingenuity Pathway Analysis, RRID:SCR_008653). […]
The synthetic lethality of AR-42 and KPT-9274 is conferred by simultaneous suppression of HR and NHEJ pathways in leukemia initiating cells (LICs). […] Treated LICs were analyzed for transcriptional differences and DNA repair mechanisms were highlighted.

[2] = system: NHEJ activity in EJDR-reporter-stable U2OS cells; assay: EJDR reporter assay, NHEJ DsRed; type: cell-based
Method: (§1) EJDR reporter assay. The EJDR assay was described previously (20). EJDR reporter cells were plated at 5×10^5 cells per well in 10% FBS and RPM11640. After drug treatments, cells were grown in 10% Tet-free FBS (100-800; Gemini) and RPM11640. Incorporated I-Sce1 was induced with Shield1 (632189; Clontech) and triamcinolone (TA) (T6510; Sigma Aldrich) ligands for 24 hours. NHEJ and HR repair activities were assessed 48 hours post induction by quantification of DsRed- and GFP-positive cells on Cytomics FC 500 Flow Cytometer (Beckman Coulter, Brea, CA).
(§2) It was unclear whether the potent ability of HDAC inhibitor to induce apoptosis of AML cells in combination with NAMPT inhibition was due to the loss of HR or NHEJ activity alone or both together. Accordingly, HR and NHEJ activities in AML cells exposed to these treatments were examined using the EJDR reporter system (FIG. 6B). EJDR-reporter-stable U2OS cells were treated with vehicle, single agents, or drug combination before being incubated with ligands, TA and Shield 1. […] The expression of D-NHEJ pathway factors, Ku70 and DNA-PKcs, and ATM pathway mediators, CHEK1 and CHEK2, were abolished by AR-42 and KPT-9274 co-treatment. […] Therefore, suppression of HDAC8 can attenuate HR and D-NHEJ gene expressions, resulting in NAMPT inhibitor sensitivity.

[3] = system: luciferase-tagged MOLM13 cells; assay: In vivo MOLM13 xenograft study, efficacy; conditions: MOLM13-engrafted NCG mice; KPT-9274 100 mg/kg daily, AR-42 20 mg/kg every another day, oral gavage
Method: NCG mice were engrafted with luciferase-tagged MOLM13 cells and treated with vehicle, 20 mg/kg AR-42, 100 mg/kg KPT-9274 and AR-42/KPT-9274 in combination.
Male NOD-Prkdc^em26cd52Il2rg^em26cd22/NjuCrl (NCG) mice (RRID:IMSR_CRL:572) (aged 6-8 weeks) were obtained from Charles River Laboratory. Mice were group-housed under conditions of constant photoperiod (12-hour light/12-hour dark), temperature, and humidity with adlibitum access to water and irradiated standard pelleted chow. 104 luciferase-tagged MOLM13 cells were injected via tail vein into NCG mice. On day 5 post-engraftment, mice were randomized to receive placebo (vehicle; Karyopharm Therapeutics) once daily, 100 mg/kg of KPT-9274 (Karyopharm Therapeutics) once daily, 20 mg/kg AR-42 every another day and the combination of KPT-9274 and AR-42 via oral gavage. Overall survival was the primary end point for the majority of the mice. A separate cohort of mice per group was used to monitor leukemic progression using IVIS imaging. Mice were monitored by animal technicians who were blinded to the treatment groups and determined when mice met early removal criteria (20% weight loss, lethargy, hunching, and poor body condition). Mice were euthanized by CO2 inhalation.
To determine the clinical relevance of the drug combination, the efficacy of co-treatment of AR-42 and KPT-9274 was tested in the MOLM13 xenograft model. […]

[4] = system: HR activity in EJDR-reporter-stable U2OS cells; assay: EJDR reporter assay, HR-GFP; type: cell-based; conditions: ISceI-induced
Method: as §1, §2

Row | SMILES | mRNA levels of HR genes (NBN, RBBP8, RAD51, BRCA1), D-NHEJ genes (XRCC4, XRCC5) and ATM pathway genes (CHEK1, CHEK2) ([1]; AR-42 alone or in combination with KPT-9274, 12 hours) | NHEJ activity (percentage of DsRed+ cells) [2] | median survival time [3] | HR activity (HR-GFP reporter) [4] | BRCA1 and XRCC4 expression ([1]; KPT-9274 alone, in some patients) | yields of D-NHEJ transcripts (XRCC6, PRKDC) and B-NHEJ gene PARP1 ([1]; in all patients)
1 | CC(C)[C@H](C(=O)Nc1ccc(C(=O)NO)cc1)c1ccccc1 [AR-42, (S)—N-Hydroxy-4-(3-methyl-2-phenylbutanamido)benzamide] | downregulated | NHEJ deficiency | 29 days | nearly completely abolished |  | 
2 | Nc1ccc(/C=C/C(=O)NCc2cc3cc(-c4ccc(C(=O)N5CCC(F)(F)CC5)cc4)cc(-c4ccc(F)cc4)c3o2)cn1 [KPT-9274, (E)-3-(6-aminopyridin-3-yl)-N-[[5-[4-(4,4-difluoropiperidine-1-carbonyl)phenyl]-7-(4-fluorophenyl)-1-benzofuran-2-yl]methyl]prop-2-enamide] |  | more robust reduction | 27 days | did not impact HR activity | upregulated | decreased
